According to paper PMC4979471 (Cell Death Discovery, 2015):
Read-outs that look alike come from different tables or passages of the source.

Tests used:
Assay in all cases: Kinase selectivity, P33-radiolabeled assay
Format in all cases: biochemical
Details in all cases: 10 μM ATP
[1] = target: T1, GRK7 (Homo sapiens, UniProt Q8WTQ7)
T1 construct: purchased Reaction Biology Corp
T1 sequence (Q8WTQ7 1-553): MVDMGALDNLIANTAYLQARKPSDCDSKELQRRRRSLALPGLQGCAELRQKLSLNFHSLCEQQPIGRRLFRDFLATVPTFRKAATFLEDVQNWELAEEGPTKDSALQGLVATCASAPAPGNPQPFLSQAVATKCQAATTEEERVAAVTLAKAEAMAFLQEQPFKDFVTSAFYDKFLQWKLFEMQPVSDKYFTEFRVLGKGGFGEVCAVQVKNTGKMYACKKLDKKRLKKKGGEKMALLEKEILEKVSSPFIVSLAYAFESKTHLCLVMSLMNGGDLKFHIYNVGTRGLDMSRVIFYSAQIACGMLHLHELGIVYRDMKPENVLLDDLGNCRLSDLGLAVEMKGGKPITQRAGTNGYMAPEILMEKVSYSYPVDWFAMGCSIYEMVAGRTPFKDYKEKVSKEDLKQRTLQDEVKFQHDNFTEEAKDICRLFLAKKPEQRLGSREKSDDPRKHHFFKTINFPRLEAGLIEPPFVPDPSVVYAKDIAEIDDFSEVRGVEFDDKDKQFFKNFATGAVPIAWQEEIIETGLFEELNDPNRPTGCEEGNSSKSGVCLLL
Summary of the method: (§1)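 Activity relative to DMSO controls (%) was measured for compound at 10 μM. Assays ran at 10 μM ATP, in duplicate.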

[2] = target: T2, RAF1 (Homo sapiens, UniProt P04049)
T2 construct: purchased Reaction Biology Corp
T2 sequence (P04049 whole entry): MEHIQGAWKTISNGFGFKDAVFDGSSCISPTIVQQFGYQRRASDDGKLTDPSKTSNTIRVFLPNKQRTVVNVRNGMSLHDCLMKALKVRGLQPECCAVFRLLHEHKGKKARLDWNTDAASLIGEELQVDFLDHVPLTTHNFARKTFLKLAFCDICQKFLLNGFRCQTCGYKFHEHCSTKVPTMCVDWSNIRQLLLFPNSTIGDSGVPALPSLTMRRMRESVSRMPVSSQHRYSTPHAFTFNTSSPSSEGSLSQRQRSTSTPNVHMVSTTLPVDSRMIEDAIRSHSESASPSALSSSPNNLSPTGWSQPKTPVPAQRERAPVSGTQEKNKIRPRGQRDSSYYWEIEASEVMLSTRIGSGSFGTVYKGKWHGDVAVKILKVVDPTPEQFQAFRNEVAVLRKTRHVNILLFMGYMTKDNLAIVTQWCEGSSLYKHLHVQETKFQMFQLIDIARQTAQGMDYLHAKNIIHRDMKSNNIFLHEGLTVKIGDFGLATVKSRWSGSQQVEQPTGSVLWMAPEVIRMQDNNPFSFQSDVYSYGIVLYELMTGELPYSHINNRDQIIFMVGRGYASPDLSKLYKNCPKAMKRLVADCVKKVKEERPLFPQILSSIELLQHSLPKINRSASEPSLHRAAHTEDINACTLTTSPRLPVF
Summary of the method: as §1

[3] = target: T3, PKCzeta (Homo sapiens, UniProt Q05513)
T3 construct: purchased Reaction Biology Corp
T3 sequence (Q05513 1-592): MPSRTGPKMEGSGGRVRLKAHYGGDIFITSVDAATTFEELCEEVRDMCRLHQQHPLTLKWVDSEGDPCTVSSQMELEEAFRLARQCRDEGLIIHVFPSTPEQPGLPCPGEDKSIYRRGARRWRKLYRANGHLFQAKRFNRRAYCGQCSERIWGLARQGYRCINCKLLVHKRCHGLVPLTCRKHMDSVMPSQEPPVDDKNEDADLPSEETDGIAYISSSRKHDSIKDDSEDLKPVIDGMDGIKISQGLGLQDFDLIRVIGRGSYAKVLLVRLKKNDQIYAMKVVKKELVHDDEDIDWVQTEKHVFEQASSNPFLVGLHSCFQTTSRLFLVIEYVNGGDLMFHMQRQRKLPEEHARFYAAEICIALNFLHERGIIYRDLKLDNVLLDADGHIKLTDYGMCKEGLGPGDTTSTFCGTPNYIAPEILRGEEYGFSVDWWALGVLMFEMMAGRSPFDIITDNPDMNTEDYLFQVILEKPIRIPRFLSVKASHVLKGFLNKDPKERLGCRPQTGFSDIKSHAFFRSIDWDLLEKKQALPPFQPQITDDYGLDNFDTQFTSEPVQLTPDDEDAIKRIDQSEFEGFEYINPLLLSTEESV
Summary of the method: as §1

[4] = target: T4, GRK1 (Homo sapiens, UniProt Q15835)
T4 construct: purchased Reaction Biology Corp
T4 sequence (Q15835 1-563): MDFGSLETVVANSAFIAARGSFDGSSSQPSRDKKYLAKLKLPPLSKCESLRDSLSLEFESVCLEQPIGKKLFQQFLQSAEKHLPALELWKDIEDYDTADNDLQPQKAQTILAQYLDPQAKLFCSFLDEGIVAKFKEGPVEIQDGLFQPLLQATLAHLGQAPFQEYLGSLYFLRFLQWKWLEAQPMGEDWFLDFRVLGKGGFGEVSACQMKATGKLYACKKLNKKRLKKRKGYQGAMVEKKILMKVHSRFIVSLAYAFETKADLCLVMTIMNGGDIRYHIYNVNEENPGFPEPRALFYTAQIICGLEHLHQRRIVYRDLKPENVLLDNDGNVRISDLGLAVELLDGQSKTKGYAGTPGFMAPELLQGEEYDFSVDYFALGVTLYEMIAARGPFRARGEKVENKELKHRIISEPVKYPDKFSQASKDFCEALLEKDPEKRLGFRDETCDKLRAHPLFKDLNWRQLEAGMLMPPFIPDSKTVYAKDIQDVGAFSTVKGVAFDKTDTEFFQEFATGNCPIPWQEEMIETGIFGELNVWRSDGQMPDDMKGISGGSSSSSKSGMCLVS
Summary of the method: as §1

[5] = target: T5, CAMK1g (Homo sapiens, UniProt Q96NX5)
T5 construct: purchased Reaction Biology Corp
T5 sequence (Q96NX5 whole entry): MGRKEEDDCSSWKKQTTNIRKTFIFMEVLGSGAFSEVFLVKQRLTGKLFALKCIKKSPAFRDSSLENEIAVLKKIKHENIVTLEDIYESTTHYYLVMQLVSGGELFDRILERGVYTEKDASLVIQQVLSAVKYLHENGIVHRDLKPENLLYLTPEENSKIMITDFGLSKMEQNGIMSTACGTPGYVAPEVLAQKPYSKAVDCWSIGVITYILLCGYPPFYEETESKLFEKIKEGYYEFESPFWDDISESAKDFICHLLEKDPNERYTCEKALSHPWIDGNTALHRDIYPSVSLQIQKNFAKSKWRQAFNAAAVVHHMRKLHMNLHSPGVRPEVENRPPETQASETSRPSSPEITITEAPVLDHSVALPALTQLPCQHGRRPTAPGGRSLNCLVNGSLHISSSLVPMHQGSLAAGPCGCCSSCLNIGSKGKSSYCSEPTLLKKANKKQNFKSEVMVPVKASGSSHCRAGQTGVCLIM
Summary of the method: as §1

[6] = target: T6, CDK2/cyclin E (Homo sapiens, UniProt P24941)
T6 construct: purchased Reaction Biology Corp
Summary of the method: as §1

[7] = target: T7, CDK1/cyclin B (Homo sapiens, UniProt P06493)
T7 construct: purchased Reaction Biology Corp
T7 sequence (P06493 whole entry): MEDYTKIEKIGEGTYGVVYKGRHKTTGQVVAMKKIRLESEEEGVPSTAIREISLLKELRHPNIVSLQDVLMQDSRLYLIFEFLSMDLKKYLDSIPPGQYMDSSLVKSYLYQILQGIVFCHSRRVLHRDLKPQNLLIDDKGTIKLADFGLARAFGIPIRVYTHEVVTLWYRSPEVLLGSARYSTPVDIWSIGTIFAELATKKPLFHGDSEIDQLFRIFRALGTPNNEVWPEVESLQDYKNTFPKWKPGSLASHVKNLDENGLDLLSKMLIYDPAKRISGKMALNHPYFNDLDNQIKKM
T7 sequence (P14635 whole entry partner): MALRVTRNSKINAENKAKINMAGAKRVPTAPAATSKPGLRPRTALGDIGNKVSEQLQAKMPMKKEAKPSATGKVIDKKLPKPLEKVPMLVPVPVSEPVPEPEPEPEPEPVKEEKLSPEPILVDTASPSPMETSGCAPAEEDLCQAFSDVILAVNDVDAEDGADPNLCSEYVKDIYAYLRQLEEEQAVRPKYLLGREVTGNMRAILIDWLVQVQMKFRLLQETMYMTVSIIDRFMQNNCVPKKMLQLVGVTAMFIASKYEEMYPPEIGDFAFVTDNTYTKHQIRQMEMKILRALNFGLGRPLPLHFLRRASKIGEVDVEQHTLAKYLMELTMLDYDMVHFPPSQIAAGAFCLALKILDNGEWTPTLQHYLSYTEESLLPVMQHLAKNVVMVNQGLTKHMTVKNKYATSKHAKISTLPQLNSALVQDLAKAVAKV
Summary of the method: as §1

[8] = target: T8, ZAP70 (Homo sapiens, UniProt P43403)
T8 construct: purchased Reaction Biology Corp
T8 sequence (P43403 1-619): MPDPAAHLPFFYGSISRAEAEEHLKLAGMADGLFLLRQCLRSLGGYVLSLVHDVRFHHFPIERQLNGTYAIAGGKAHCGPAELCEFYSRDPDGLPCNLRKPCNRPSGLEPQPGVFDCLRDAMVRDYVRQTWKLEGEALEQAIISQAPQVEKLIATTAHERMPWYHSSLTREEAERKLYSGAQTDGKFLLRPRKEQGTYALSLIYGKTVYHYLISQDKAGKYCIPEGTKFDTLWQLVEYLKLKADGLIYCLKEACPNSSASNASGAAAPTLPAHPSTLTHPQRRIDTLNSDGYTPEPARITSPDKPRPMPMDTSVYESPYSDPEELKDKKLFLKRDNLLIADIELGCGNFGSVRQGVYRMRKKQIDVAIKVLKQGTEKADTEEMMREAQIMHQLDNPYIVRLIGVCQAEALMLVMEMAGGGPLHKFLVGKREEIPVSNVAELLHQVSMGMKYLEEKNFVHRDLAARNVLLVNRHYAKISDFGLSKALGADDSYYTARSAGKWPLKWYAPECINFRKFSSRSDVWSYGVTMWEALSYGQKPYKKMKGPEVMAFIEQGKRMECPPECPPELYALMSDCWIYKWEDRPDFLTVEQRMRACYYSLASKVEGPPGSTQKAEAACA
Summary of the method: as §1

[9] = read-out: % Enzyme Activity (relative to DMSO controls) AVG
[10] = read-out: % Enzyme Activity (relative to DMSO controls) Data 1
[11] = read-out: % Enzyme Activity (relative to DMSO controls) Data 2

CC(C)(C)C(=O)N1N=CC[C@H]1c1ccccc1 [GSK′963]
remaining activity at 10 µM [1, 9]: 90.3%
remaining activity at 10 µM [1, 10]: 88.3%
remaining activity at 10 µM [1, 11]: 92.4%
remaining activity at 10 µM [2, 9]: 93.7%
remaining activity at 10 µM [2, 10]: 94.8%
remaining activity at 10 µM [2, 11]: 92.7%
remaining activity at 10 µM [3, 9]: 105%
remaining activity at 10 µM [3, 10]: 105%
remaining activity at 10 µM [3, 11]: 105%
remaining activity at 10 µM [4, 9]: 108%
remaining activity at 10 µM [4, 10]: 109%
remaining activity at 10 µM [4, 11]: 106%
remaining activity at 10 µM [5, 9]: 82.4%
remaining activity at 10 µM [5, 10]: 81.8%
remaining activity at 10 µM [5, 11]: 83%
remaining activity at 10 µM [6, 9]: 95.2%
remaining activity at 10 µM [6, 10]: 95.7%
remaining activity at 10 µM [6, 11]: 94.7%
remaining activity at 10 µM [7, 9]: 88.6%
remaining activity at 10 µM [7, 10]: 84%
remaining activity at 10 µM [7, 11]: 93.2%
remaining activity at 10 µM [8, 9]: 111%
remaining activity at 10 µM [8, 10]: 111%
remaining activity at 10 µM [8, 11]: 111%
